# Columns and labels:
# m2 mACHR [1] = target: T1, m2 mACHR (Homo sapiens, UniProt P08172)
# T1 sequence (P08172 1-466): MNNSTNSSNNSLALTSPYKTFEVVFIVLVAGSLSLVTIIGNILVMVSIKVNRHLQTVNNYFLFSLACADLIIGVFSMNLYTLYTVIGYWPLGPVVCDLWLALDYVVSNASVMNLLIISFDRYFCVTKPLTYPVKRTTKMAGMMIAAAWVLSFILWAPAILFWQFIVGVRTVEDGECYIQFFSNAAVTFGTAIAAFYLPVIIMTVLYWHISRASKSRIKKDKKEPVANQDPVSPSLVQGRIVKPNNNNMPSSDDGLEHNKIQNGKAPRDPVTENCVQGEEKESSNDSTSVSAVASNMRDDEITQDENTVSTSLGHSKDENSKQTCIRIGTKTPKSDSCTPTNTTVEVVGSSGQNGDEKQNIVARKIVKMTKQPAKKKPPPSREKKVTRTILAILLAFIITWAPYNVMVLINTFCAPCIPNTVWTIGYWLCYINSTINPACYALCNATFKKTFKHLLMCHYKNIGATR
# NIH/3T3 cells [2] = assay: [3H]NMS binding to membranes of vector (pDS, neo) transfectants
# [3] = tested on: human muscarinic acetylcholine receptors; assay: Focus assay after transfection of NIH/3T3 cells, mACHR genes in general; format: cell-based; settings: atropine 10 μM
# Text: (§1) Transfection. […] Mass populations expressing the transfected neogene were selected for their ability to grow in the presence of geneticin (G418) (Gibco). Transformed foci were scored in stained plates of NIH/3T3 2-3 weeks after transfection. Individual G418 colonies or transformed foci were isolated with the aid of cloning cylinders, and maintained in Dulbecco's Modified Eagle Medium containing 10% calf serum.
# (§2) DNA Constructs. […] Analysis of Receptor Expression.
# (§3) Foci of transformation were scored after 2-3 weeks. The efficiency of transfection was determined by scoring neo resistant colonies in medium containing G418 (0.750 mg/ml). […] Results represent the average of three independent experiments.
# m5 mACHR = target: T2, m5 mACHR (Homo sapiens, UniProt P08912); assay: Focus assay after transfection of NIH/3T3 cells, pDS m5; format: cell-based; settings: for Focus-forming activity: pDS m5
# T2 construct: carbachol-dependent focus formation
# T2 sequence (P08912 1-532): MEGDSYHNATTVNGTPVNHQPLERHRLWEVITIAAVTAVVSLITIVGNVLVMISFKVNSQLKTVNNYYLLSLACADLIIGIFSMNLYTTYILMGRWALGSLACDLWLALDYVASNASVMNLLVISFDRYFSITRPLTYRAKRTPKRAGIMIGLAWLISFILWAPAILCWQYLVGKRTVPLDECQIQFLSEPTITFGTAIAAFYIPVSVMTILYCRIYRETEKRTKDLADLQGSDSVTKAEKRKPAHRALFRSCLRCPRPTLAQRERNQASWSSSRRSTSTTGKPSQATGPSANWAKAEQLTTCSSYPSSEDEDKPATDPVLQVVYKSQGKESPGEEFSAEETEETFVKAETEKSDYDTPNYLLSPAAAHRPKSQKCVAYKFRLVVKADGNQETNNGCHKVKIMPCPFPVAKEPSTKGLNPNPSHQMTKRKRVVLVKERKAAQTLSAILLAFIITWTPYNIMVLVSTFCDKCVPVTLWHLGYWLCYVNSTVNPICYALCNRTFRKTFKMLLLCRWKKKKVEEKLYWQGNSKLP
# Text: as §1, §2, §3
# NIH/3T3 cells [4] = assay: Focus assay after transfection of NIH/3T3 cells, pDS vector; format: cell-based, murine
# Text: as §1, §2, §3
# NIH/3T3 cells [5] = assay: PI hydrolysis in neo NIH/3T3 cells; format: cell-based, murine; settings: Mus musculus, NIH3T3, 1 h, binding 0, read-out: PI Hydrolysis Maximal activation
# Text: Phosphatidylinositol Hydrolysis.
# EC50, half maximal concentration.
# m1, m2, m3 or m4 mACHRs = assay: cAMP assay without forskolin; settings: 1 mM carbachol, 10 min
# NIH/3T3 cells [6] = settings: neo, binding 0
# m2 mACHR [7] = target: T1, m2 mACHR; assay: Focus assay after transfection of NIH/3T3 cells, pDS m2; format: cell-based; parameters: expressed in transfected cells; host or cells: NIH/3T3 murine fibroblasts (plasmid pDS m2); settings: for Focus-forming activity: pDS m2
# Text: as §1, §2, §3
# m4 mACHR [8] = target: T3, m4 mACHR (Homo sapiens, UniProt P08173); assay: Focus assay after transfection of NIH/3T3 cells, pDS m4; format: cell-based; parameters: expressed in transfected cells; host or cells: NIH/3T3 murine fibroblasts (plasmid pDS m4); settings: for Focus-forming activity: pDS m4
# T3 sequence (P08173 1-479): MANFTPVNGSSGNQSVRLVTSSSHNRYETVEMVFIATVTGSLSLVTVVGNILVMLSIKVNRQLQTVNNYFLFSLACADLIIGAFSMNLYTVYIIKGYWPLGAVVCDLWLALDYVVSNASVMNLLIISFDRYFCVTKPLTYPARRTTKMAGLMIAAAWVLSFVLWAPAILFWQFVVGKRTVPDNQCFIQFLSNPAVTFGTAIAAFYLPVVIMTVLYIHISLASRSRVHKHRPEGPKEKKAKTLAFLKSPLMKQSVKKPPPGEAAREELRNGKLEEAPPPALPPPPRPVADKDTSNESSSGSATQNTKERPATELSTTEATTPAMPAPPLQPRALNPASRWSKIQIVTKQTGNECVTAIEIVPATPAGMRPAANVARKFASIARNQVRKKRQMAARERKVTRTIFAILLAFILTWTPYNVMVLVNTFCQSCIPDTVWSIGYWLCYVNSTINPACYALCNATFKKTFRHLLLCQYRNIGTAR
# Text: as §1, §2, §3
# m2 mACHR [9] = target: T1, m2 mACHR; assay: cAMP assay, forskolin-stimulated, m2 clones; format: cell-based; parameters: expressed in transfected cells; host or cells: NIH/3T3 murine fibroblasts (plasmid pDS m2); settings: 1 mM carbachol, m2 (FIG. 4)
# m4 mACHR [10] = target: T3, m4 mACHR; assay: cAMP assay, forskolin-stimulated, m4 clones; format: cell-based; parameters: expressed in transfected cells; host or cells: NIH/3T3 murine fibroblasts (plasmid pDS m4); settings: 1 mM carbachol, m4 (FIG. 4)
compound,measurement,setting,value
"C[N+]1(C)C2CC(OC(=O)C(CO)c3ccccc3)CC1C1OC12 (stereo not shown) [[^3 H]NMS, N-methylscopolamine]",Binding,m2 mACHR [1]; G418 selected m2 clone (Table 3),308 fmoles [^3 H]NMS/mg protein
same,Binding [3H]NMS,"m2 mACHR [1]; mass culture, pDS m2",90 fmoles [^3 H]NMS/mg protein
same,Binding [3H]NMS,"NIH/3T3 cells [2]; mass culture, pDS",< 1 fmoles [^3 H]NMS/mg protein
same,Binding,NIH/3T3 cells [2]; neo clone (Table 3),0 fmoles [^3 H]NMS/mg protein
CN1[C@@H]2CC[C@H]1C[C@@H](OC(=O)C(CO)c1ccccc1)C2 (stereo partly shown) [atropine],foci of transformation in cells maintained in atropine,[3],No foci of transformation were observed
same,carbachol induced focus-formation in presence of atropine,[3]; data not shown,abolished
C[N+](C)(C)CCOC(N)=O [carbachol],Focus-forming activity,m5 mACHR; carbachol 10^-4 M,47 per pmol DNA
same,Focus-forming activity,m5 mACHR; carbachol 10^-6 M,< 5 per pmol DNA
same,foci of transformation in presence of carbachol,m5 mACHR; m5 transfectants,foci of transformation readily appeared
same,Focus-forming activity,NIH/3T3 cells [4]; carbachol 10^-4 M,< 1 per pmol DNA
same,Focus-forming activity,NIH/3T3 cells [4]; carbachol 10^-6 M,< 1 per pmol DNA
same,Emax,NIH/3T3 cells [5],100%
same,cAMP accumulation without forskolin,"m1, m2, m3 or m4 mACHRs",did not accumulate detectable cAMP
same,Transformation Maximal transportation,NIH/3T3 cells [6],0
same,Focus-forming activity,m2 mACHR [7]; carbachol 10^-4 M,< 1 per pmol DNA
same,Focus-forming activity,m2 mACHR [7]; carbachol 10^-6 M,< 1 per pmol DNA
same,foci of transformation in presence of carbachol,m2 mACHR [7]; m2 transfected cultures,not m2 or m4
same,Focus-forming activity,m4 mACHR [8]; carbachol 10^-4 M,< 1 per pmol DNA
same,Focus-forming activity,m4 mACHR [8]; carbachol 10^-6 M,< 1 per pmol DNA
same,foci of transformation in presence of carbachol,m4 mACHR [8]; m4 transfected cultures,not m2 or m4
same,cAMP levels in forskolin treated cells,m2 mACHR [9],decreased
same,cAMP levels in forskolin treated cells,m4 mACHR [10],decreased

# Reference: patent US5384243A, “Method for screening an agent for its ability to prevent cell transformation” (priority 1992, dated 1995)
